Test results from US8952024B2, “Herbicidal pyrimidone derivatives” (E I du Pont de Nemours and Company, priority 2009, dated 2015).
Where two headings read alike, the source gives them in different places.

Key:
Assay type in all cases: in vivo
kochia (Kochia scoparia) = assay: Test B pre-/postemergence plant response; settings: Preemergence, 125 g ai/ha; 0 to 100 scale
In short: (§1)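 Test compounds, formulated in a non-phytotoxic solvent mixture with surfactant, are applied to the soil surface (loam and sand blend) right after seeding, or sprayed over plants at the 1- to 4-leaf stage grown in peat moss/vermiculite medium. After 13 to 15 days under glasshouse conditions, each species is scored visually from 0 (no effect) to 100 (complete control) against controls.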

[1] = system: morningglory (Ipomoea coccinea); assay: Test B pre-/postemergence plant response; settings: for pest or weed control at 16 g/ha: 16 g ai/ha; for pest or weed control at 16 g/ha / pest or weed control at 31 g/ha / pest or weed control at 62 g/ha: read-out: Plant response rating, Morningglory; for pest or weed control at 31 g/ha: 31 g ai/ha; for pest or weed control at 62 g/ha: 62 g ai/ha
In short: as §1

[2] = system: ragweed (common ragweed, Ambrosia elatior); assay: Test B pre-/postemergence plant response; settings: for pest or weed control at 31 g/ha: 31 g ai/ha; for pest or weed control at 62 g/ha: 62 g ai/ha
In short: as §1

soybean (Glycine max) = assay: Test B pre-/postemergence plant response; settings: for plant injury at 31 g/ha: 31 g ai/ha, scale 0 to 100 (0 no effect, 100 complete control); for plant injury at 62 g/ha: 62 g ai/ha
In short: as §1

[3] = system: velvetleaf (Abutilon theophrasti); assay: Test B pre-/postemergence plant response; settings: for pest or weed control at 31 g/ha: 31 g ai/ha; for pest or weed control at 31 g/ha / pest or weed control at 62 g/ha: read-out: Plant response rating, Velvetleaf; for pest or weed control at 62 g/ha: 62 g ai/ha
In short: as §1

[4] = system: wheat (Triticum aestivum); assay: Test B pre-/postemergence plant response; settings: for plant injury at 31 g/ha: 31 g ai/ha; for plant injury at 62 g/ha: 62 g ai/ha
In short: as §1

wild oat (Avena fatua) = assay: Test B pre-/postemergence plant response; settings: for pest or weed control at 16 g/ha: 16 g ai/ha; for pest or weed control at 62 g/ha: 62 g ai/ha
In short: as §1

[5] = system: yellow nutsedge (Cyperus esculentus); assay: Test B pre-/postemergence plant response; settings: for pest or weed control at 16 g/ha: 16 g ai/ha; for pest or weed control at 16 g/ha / pest or weed control at 31 g/ha / pest or weed control at 62 g/ha: read-out: Plant response rating, Nutsedge, Yellow; for pest or weed control at 31 g/ha: 31 g ai/ha; for pest or weed control at 62 g/ha: 62 g ai/ha
In short: as §1

[6] = system: canarygrass (Phalaris minor); assay: Test B postemergence plant response; settings: Phalaris minor, post-emergence, 360 h, Postemergence
In short: (§2)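 Visual ratings from 0 (no effect) to 100 (complete control), made against controls 13–15 days after treatment, kept in a greenhouse. Compounds were applied postemergence to potted plants at the 1- to 4-leaf stage (2–18 cm).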

[7] = system: chickweed (Stellaria media); assay: Test B postemergence plant response; settings: Stellaria media, post-emergence, 360 h, Postemergence
In short: as §2

[8] = system: windgrass (Apera spica-venti); assay: Test B postemergence plant response; settings: Apera spica-venti, post-emergence, 360 h, Postemergence
In short: as §2

[9] = Ipomoea, pre-emergence, Preemergence, scale 0 to 100 (0 no effect, 100 complete control)
[10] = Preemergence, 125 g ai/ha, 0 to 100 scale
[11] = Ambrosia artemisiifolia, pre-emergence, 360 h, Preemergence, scale 0 to 100 (0 no effect, 100 complete control), read-out: Plant response rating, Ragweed
[12] = Abutilon theophrasti, pre-emergence, 360 h, Preemergence, scale 0 to 100 (0 no effect, 100 complete control)
[13] = Triticum aestivum, pre-emergence, Preemergence, scale 0 to 100 (0 no effect, 100 complete control), read-out: Plant response rating, Wheat
[14] = Avena fatua, pre-emergence, Preemergence, scale 0 to 100 (0 no effect, 100 complete control), read-out: Plant response rating, Oat, Wild
[15] = Cyperus, pre-emergence, Preemergence, scale 0 to 100 (0 no effect, 100 complete control)
[16] = 125 g ai/ha, visual rating after 13 to 15 days, scale 0 (no effect) to 100 (complete control)

O=C1CCCC(O)=C1C(=O)c1cnc(-c2ccccc2)n(-c2ccccc2)c1=O [Compound 2, 5-[(2-hydroxy-6-oxo-1-cyclohexen-1-yl)carbonyl]-2,3-diphenyl-4(3H)-pyrimidinone]
Kochia plant response rating (kochia (Kochia scoparia)): 100
pest or weed control at 16 g/ha ([1]; Ipomoea, post-emergence, Postemergence, 0 to 100 scale): 55%
pest or weed control at 31 g/ha ([1]; Ipomoea, post-emergence, Postemergence, scale 0 to 100 (0 no effect, 100 complete control)): 70%
pest or weed control at 62 g/ha ([1]; Ipomoea, post-emergence, Postemergence, scale 0 (no effect) to 100 (complete control), 13 to 15 days): 80%
pest or weed control at 125 g/ha ([1]; Ipomoea, post-emergence, Postemergence, 125 g ai/ha, visual rating after 13 to 15 days, scale 0 (no effect) to 100 (complete control)): 95%
pest or weed control at 16 g/ha [1, 9]: 0%
pest or weed control at 31 g/ha [1, 9]: 0%
pest or weed control at 62 g/ha ([1]; Ipomoea, pre-emergence, Preemergence, scale 0 to 100, 0 no effect, 100 complete control): 20%
Morningglory plant response rating [1, 10]: 75
pest or weed control at 16 g/ha ([2]; Ambrosia artemisiifolia, post-emergence, 360 h, 16 g ai/ha, Postemergence, 0 to 100 scale, read-out: Plant response rating, Ragweed): 65%
pest or weed control at 31 g/ha ([2]; Ambrosia artemisiifolia, post-emergence, 360 h, Postemergence, scale 0 to 100 (0 no effect, 100 complete control), read-out: Plant response rating, Ragweed): 70%
pest or weed control at 62 g/ha ([2]; Ambrosia artemisiifolia, post-emergence, 360 h, Postemergence, scale 0 (no effect) to 100 (complete control), 13 to 15 days, read-out: Plant response rating, Ragweed): 80%
pest or weed control at 125 g/ha ([2]; Ambrosia artemisiifolia, post-emergence, 360 h, Postemergence, 125 g ai/ha, visual rating after 13 to 15 days, scale 0 (no effect) to 100 (complete control)): 90%
pest or weed control at 31 g/ha [2, 11]: 60%
pest or weed control at 62 g/ha [2, 11]: 85%
Ragweed plant response rating [2, 10]: 98
plant injury at 16 g/ha (soybean (Glycine max); Glycine max, post-emergence, 16 g ai/ha, Postemergence, 0 to 100 scale, read-out: Plant response rating, Soybean): 75%
plant injury at 31 g/ha (soybean (Glycine max); Glycine max, post-emergence, Postemergence, read-out: Plant response rating, Soybean): 80%
plant injury at 62 g/ha (soybean (Glycine max); Glycine max, post-emergence, Postemergence, scale 0 (no effect) to 100 (complete control), 13 to 15 days, read-out: Plant response rating, Soybean): 90%
plant injury at 125 g/ha (soybean (Glycine max); Glycine max, post-emergence, Postemergence, 125 g ai/ha, visual rating after 13 to 15 days, scale 0 (no effect) to 100 (complete control)): 95%
plant injury at 31 g/ha (soybean (Glycine max); Glycine max, pre-emergence, Preemergence, read-out: Plant response rating, Soybean): 15%
plant injury at 62 g/ha (soybean (Glycine max); Glycine max, pre-emergence, Preemergence, scale 0 to 100, 0 no effect, 100 complete control, read-out: Plant response rating, Soybean): 60%
Soybean plant response rating (soybean (Glycine max); [10]): 70
pest or weed control at 31 g/ha ([3]; Abutilon theophrasti, post-emergence, 360 h, Postemergence, scale 0 to 100 (0 no effect, 100 complete control)): 85%
pest or weed control at 62 g/ha ([3]; Abutilon theophrasti, post-emergence, 360 h, Postemergence, scale 0 (no effect) to 100 (complete control), 13 to 15 days): 85%
pest or weed control at 125 g/ha ([3]; Abutilon theophrasti, post-emergence, 360 h, Postemergence, 125 g ai/ha, visual rating after 13 to 15 days, scale 0 (no effect) to 100 (complete control)): 90%
pest or weed control at 31 g/ha [3, 12]: 75%
pest or weed control at 62 g/ha [3, 12]: 90%
Velvetleaf plant response rating [3, 10]: 100
Wheat plant response rating [4, 10]: 0
plant injury at 16 g/ha ([4]; Triticum aestivum, post-emergence, 16 g ai/ha, Postemergence, 0 to 100 scale, read-out: Plant response rating, Wheat): 0%
plant injury at 31 g/ha ([4]; Triticum aestivum, post-emergence, Postemergence, scale 0 to 100 (0 no effect, 100 complete control), read-out: Plant response rating, Wheat): 5%
plant injury at 62 g/ha ([4]; Triticum aestivum, post-emergence, Postemergence, scale 0 (no effect) to 100 (complete control), 13 to 15 days, read-out: Plant response rating, Wheat): 10%
plant injury at 125 g/ha ([4]; Triticum aestivum, post-emergence, Postemergence, 125 g ai/ha, visual rating after 13 to 15 days, scale 0 (no effect) to 100 (complete control)): 20%
plant injury at 31 g/ha [4, 13]: 0%
plant injury at 62 g/ha [4, 13]: 0%
pest or weed control at 16 g/ha (wild oat (Avena fatua); Avena fatua, post-emergence, Postemergence, 0 to 100 scale, read-out: Plant response rating, Oat, Wild): 5%
pest or weed control at 31 g/ha (wild oat (Avena fatua); Avena fatua, post-emergence, Postemergence, 31 g ai/ha, scale 0 to 100 (0 no effect, 100 complete control), read-out: Plant response rating, Oat, Wild): 30%
pest or weed control at 62 g/ha (wild oat (Avena fatua); Avena fatua, post-emergence, Postemergence, scale 0 (no effect) to 100 (complete control), 13 to 15 days, read-out: Plant response rating, Oat, Wild): 45%
pest or weed control at 125 g/ha (wild oat (Avena fatua); Avena fatua, post-emergence, Postemergence, 125 g ai/ha, visual rating after 13 to 15 days, scale 0 (no effect) to 100 (complete control)): 55%
pest or weed control at 16 g/ha (wild oat (Avena fatua); [14]): 0%
pest or weed control at 62 g/ha (wild oat (Avena fatua); [14]): 5%
Oat, Wild plant response rating (wild oat (Avena fatua); [10]): 50
pest or weed control at 16 g/ha ([5]; Cyperus, post-emergence, Postemergence, 0 to 100 scale): 40%
pest or weed control at 31 g/ha ([5]; Cyperus, post-emergence, Postemergence, scale 0 to 100 (0 no effect, 100 complete control)): 45%
pest or weed control at 62 g/ha ([5]; Cyperus, post-emergence, Postemergence, scale 0 (no effect) to 100 (complete control), 13 to 15 days): 60%
pest or weed control at 125 g/ha ([5]; Cyperus, post-emergence, Postemergence, 125 g ai/ha, visual rating after 13 to 15 days, scale 0 (no effect) to 100 (complete control)): 75%
pest or weed control at 16 g/ha [5, 15]: 0%
pest or weed control at 31 g/ha [5, 15]: 15%
pest or weed control at 62 g/ha [5, 15]: 40%
Nutsedge, Yellow plant response rating [5, 10]: 70
pest or weed control at 16 g/ha ([6]; 16 g ai/ha, 0 to 100 scale, read-out: Plant response rating, Canarygrass): 20%
pest or weed control at 31 g/ha ([6]; 31 g ai/ha, scale 0 to 100 (0 no effect, 100 complete control), read-out: Plant response rating, Canarygrass): 40%
pest or weed control at 62 g/ha ([6]; 62 g ai/ha, scale 0 (no effect) to 100 (complete control), 13 to 15 days, read-out: Plant response rating, Canarygrass): 50%
pest or weed control at 125 g/ha [6, 16]: 80%
pest or weed control at 16 g/ha ([7]; 16 g ai/ha, 0 to 100 scale, read-out: Plant response rating, Chickweed): 70%
pest or weed control at 31 g/ha ([7]; 31 g ai/ha, scale 0 to 100 (0 no effect, 100 complete control), read-out: Plant response rating, Chickweed): 75%
pest or weed control at 62 g/ha ([7]; 62 g ai/ha, scale 0 (no effect) to 100 (complete control), 13 to 15 days, read-out: Plant response rating, Chickweed): 90%
pest or weed control at 125 g/ha [7, 16]: 95%
pest or weed control at 16 g/ha ([8]; 16 g ai/ha, 0 to 100 scale, read-out: Plant response rating, Windgrass): 10%
pest or weed control at 31 g/ha ([8]; 31 g ai/ha, scale 0 to 100 (0 no effect, 100 complete control), read-out: Plant response rating, Windgrass): 10%
pest or weed control at 62 g/ha ([8]; 62 g ai/ha, scale 0 (no effect) to 100 (complete control), 13 to 15 days, read-out: Plant response rating, Windgrass): 15%
pest or weed control at 125 g/ha [8, 16]: 50%
